# From patent US8470867B2, “Sigma receptor inhibitors” (Laboratorios Del Dr. Esteve, S.A., priority 2004, dated 2013)
# How the values were obtained:
# σ2-receptor = target: T1, σ2-receptor (Mus musculus, UniProt Q8VD00); assay: Sigma-2 receptor binding, [3H]-DTG, brains from σ1 knockout mice; set-up: % Binding σ2: dose or concentration left out as unconfirmed
# T1 construct: brains from sigma receptor type I (σ1) knockout mice were homogenized; from tissue; host or cells: brain membranes of σ1 knockout mice
# T1 sequence (Q8VD00 1-176): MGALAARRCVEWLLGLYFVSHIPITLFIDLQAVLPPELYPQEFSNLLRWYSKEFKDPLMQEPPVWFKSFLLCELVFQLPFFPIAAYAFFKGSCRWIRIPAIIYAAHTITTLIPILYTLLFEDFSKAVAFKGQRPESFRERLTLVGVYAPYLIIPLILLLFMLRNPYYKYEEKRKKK
# Protocol: Binding studies for σ2-receptor were performed as described ([…] et al., 1991) with some modifications. In brief, brains from sigma receptor type I (σ1) knockout mice were homogenized in a volume of 10 mL/g tissue net weight of ice-cold 10 mM Tris-HCl, pH 7.4, containing 320 mM sucrose (Tris-sucrose buffer) with a Potter-Elvehjem homogenizer (10 strokes at 500 r.p.m.) The homogenates were then centrifuged at 1000 g for […] at 4° C., and the supernatants were saved. The pellets were resuspended by vortexing in 2 mL/g ice-cold Tris-sucrose buffer and centrifuged again at 1000 g for 10 min. The combined 1000 g supernatants were centrifuged at 31000 g for 15 min at 4° C. The pellets were resuspended by vortexing in 3 mL/g 10 mM Tris-HCl, pH 7.4, and the suspension was kept at 25° C. for 15 min. Following centrifugation at 31000 g for 15 min, the pellets were resuspended by gentle Potter Elvehjem homogenization to a volume of 1.53 mL/g in 10 mM Tris-HCl pH 7.4. The assay tubes contained 10 μL of [^3H]-DTG (final concentration of 3 nM), 400 μL of the tissue suspension (5.3 mL/g in 50 mM Tris-HCl, pH 8.0) to a final assay volume of 0.5 mL. […] The amount of bound radioactivity was determined by liquid scintillation spectrometry using a Wallac Winspectral 1414 liquid scintillation counter. Protein concentrations were determined by the method of Lowry et al. (1951).
# [1] = system: capsaicin-induced mechanical allodynia; assay: Effect on capsaicin in development of mechanical allodynia (von Frey filaments); format: in vivo; conditions: mice
# Protocol: This model uses the von-Frey Filaments and is a model to test the effects or symptoms of neuropathic pain, allodynia etc.
# • The injection of 1 μg of capsaicin to experimental animals produces acute pain followed by hyperalgesia/allodynia • The mechanisms involved in capsaicin-induced acute pain and hyperalgesia are relatively well known (mainly activation of peripheral nociceptors and sensitization of spinal cord neurons, respectively)
# After habituation mice were according to FIG. 1 first treated with the test-compound (or solvent in controls). Then 1 μg capsaicin (1% DMSO) is injected into their paw resulting in developing pain in the effected paw. The effected paw is then treated with a mechanical stimulus and the latency time before the paw is withdrawn is measured.
# σ1-receptor = target: T2, σ1-receptor (Cavia porcellus, UniProt Q60492); assay: Sigma-1 receptor binding, [3H](+)-pentazocine, brain membranes; set-up: species or system guinea pig; conditions: for inhibition at 0.1 µM: 10^−7 M
# T2 construct: guinea pig brains were homogenized; from tissue; host or cells: guinea pig brain membranes
# T2 sequence (Q60492 whole entry): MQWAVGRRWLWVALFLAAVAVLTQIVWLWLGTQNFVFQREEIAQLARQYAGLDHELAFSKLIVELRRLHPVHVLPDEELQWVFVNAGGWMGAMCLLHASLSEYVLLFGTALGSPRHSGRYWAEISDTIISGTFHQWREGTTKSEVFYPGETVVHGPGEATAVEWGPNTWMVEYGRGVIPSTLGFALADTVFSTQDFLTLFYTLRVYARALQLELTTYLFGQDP
# Protocol: Brain membrane preparation and binding assays for the σ1-receptor were performed as described (DeHaven-Hudkins et al., 1992) with some modifications. In brief, guinea pig brains were homogenized in 10 vols. (w/v) of Tris-HCl 50 mM 0.32 M sucrose, pH 7.4, with a Kinematica Polytron PT 3000 at 15000 r.p.m. for 30 s. The homogenate was centrifuged at 1000 g for […] at 4° C. and the supernatants collected and centrifuged again at 48000 g for 15 min at 4° C. The pellet was resuspended in 10 volumes of Tris-HCl buffer (50 mM, pH 7.4), incubated at 37° C. for 30 min, and centrifuged at 48000 g for 20 min at 4° C. Following this, the pellet was resuspended in fresh Tris-HCl buffer (50 mM, pH 7.4) and stored on ice until use.
# Each assay tube contained 10 μL of [^3H](+)-pentazocine (final concentration of 0.5 nM), 900 μL of the tissue suspension to a final assay volume of 1 mL and a final tissue concentration of approximately 30 mg tissue net weight/mL. […] All tubes were incubated at 37° C. for 150 min before termination of the reaction by rapid filtration over Schleicher & Schuell GF 3362 glass fibre filters [previously soaked in a solution of 0.5% polyethylenimine for at least 1 h]. Filters were then washed with four times with 4 mL of cold Tris-HCl buffer (50 mM, pH 7.4). Following addition of scintillation cocktail, the samples were allowed to equilibrate overnight. The amount of bound radioactivity was determined by liquid scintillation spectrometry using a Wallac Winspectral 1414 liquid scintillation counter. Protein concentrations were determined by the method of Lowry et al. (1951).
# psychosis = conditions: cited from earlier work
# sigma (σ-2) site = sigma (σ-2) site (Homo sapiens, UniProt Q5BJF2); conditions: cited from earlier work
# sigma (σ-2) site, sequence (Q5BJF2 whole entry): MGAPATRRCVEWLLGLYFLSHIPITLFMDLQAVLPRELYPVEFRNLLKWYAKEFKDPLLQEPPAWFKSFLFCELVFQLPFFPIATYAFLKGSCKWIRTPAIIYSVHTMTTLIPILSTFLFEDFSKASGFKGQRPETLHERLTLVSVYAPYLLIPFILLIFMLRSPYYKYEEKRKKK
# sigma 1 (σ-1) site = sigma 1 (σ-1) site (Homo sapiens, UniProt Q99720); conditions: cited from earlier work
# sigma 1 (σ-1) site, sequence (Q99720 whole entry): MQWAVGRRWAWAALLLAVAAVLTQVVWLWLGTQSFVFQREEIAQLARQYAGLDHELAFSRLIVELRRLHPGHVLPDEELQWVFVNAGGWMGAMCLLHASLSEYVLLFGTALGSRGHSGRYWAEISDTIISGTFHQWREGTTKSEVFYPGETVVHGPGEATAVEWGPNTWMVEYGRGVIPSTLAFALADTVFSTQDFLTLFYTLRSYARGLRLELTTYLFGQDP
Compound,melting point [°C],inhibition at 0.1 µM (σ1-receptor) [%],other results
"Cc1cc(OCCN2CCOCC2)nn1-c1ccc(Cl)c(Cl)c1 [Example 1, 4-{2-(1-(3,4-Dichlorophenyl)-5-methyl-1H pyrazol-3-yloxy)ethyl}morpholine]",179 to 182,,"% Binding σ2 (σ2-receptor): 3.7%; Ki (σ2-receptor): > 10000 nM; analgesia in capsaicin-induced neuropathic pain, dose dependency (FIG. 2) ([1]; 1 μg capsaicin into paw, von Frey filaments): dose dependency of the treatment; efficacy depending on the force of the von-Frey filaments (FIG. 3) ([1]; 1 μg capsaicin, 0.5 g typically in the range of neuropathic pain/allodynia): effective specifically in neuropathic pain or mechanical allodynia"
"Cl.Clc1ccc(-n2nc(OCCN3CCCC3)cc2-c2ccccc2)cc1Cl [Example 17, 1-(3,4-Dichlorophenyl)-5-phenyl-3-[2-(pyrrolidin-1-yl)ethoxy]-1H-pyrazole hydrochloride]",137 to 147,47.3,
"Cl.Clc1ccc(-n2nc(OCCN3CCc4ccccc4C3)cc2-c2ccccc2)cc1Cl [Example 21, 2-{2-[1-(3,4-Dichlorophenyl)-5-phenyl-1H-pyrazol-3-yloxy]ethyl}-1,2,3,4-tetrahydroisoquinoline hydrochloride]",185 to 189,45.5,
"Cc1cc(OCCCCN2CCOCC2)nn1-c1ccc(Cl)c(Cl)c1.Cl [Example 22, 4-{4-[1-(3,4-Dichlorophenyl)-5-methyl-1H-pyrazol-3-yloxy]butyl}morpholine hydrochloride]",150 to 154,97,Ki (σ1-receptor): 2.5 nM
"Cc1cc(OCCCCN2CCCCC2)nn1-c1ccc(Cl)c(Cl)c1.Cl [Example 24, 1-{4-[1-(3,4-Dichlorophenyl)-5-methyl-1H-pyrazol-3-yloxy]butyl}piperidine hydrochloride]",156 to 161,110,Ki (σ1-receptor): 0.5 nM
"Cc1cc(OCCCCN2CCN(C)CC2)nn1-c1ccc(Cl)c(Cl)c1.Cl.Cl [Example 25, 1-{4-[1-(3,4-Dichlorophenyl)-5-methyl-1H-pyrazol-3-yloxy]butyl}-4-methylpiperazine dihydrochloride]",181 to 185,94.2,Ki (σ1-receptor): 3.9 nM
"Cc1cc(OCCCCN2CCC(c3ccccc3)CC2)nn1-c1ccc(Cl)c(Cl)c1.Cl [Example 28, 1-{4-[1-(3,4-dichlorophenyl)-5-methyl-1H-pyrazol-3-yloxy]butyl}-4-phenylpiperidine hydrochloride]",166 to 170,95.1,
"CC(C)c1cc(OCCN2CCOCC2)nn1-c1ccc(Cl)c(Cl)c1.Cl [Example 31, 4-{2-[1-(3,4-dichlorophenyl)-5-isopropyl-1H-pyrazol-3-yloxy]ethyl}morpholine hydrochloride]",195 to 197,68.6,
"CC(C)c1cc(OCCN2CCCC2)nn1-c1ccc(Cl)c(Cl)c1.Cl [Example 33, 1-(3,4-Dichlorophenyl)-5-isopropyl-3-[2-(pyrrolidin-1-yl)ethoxy]-1H-pyrazole hydrochloride]",138 to 142,87.1,
"CC(C)c1cc(OCCCN2CCCC2)nn1-c1ccc(Cl)c(Cl)c1.Cl [Example 34, 1-(3,4-Dichlorophenyl)-5-isopropyl-3-[3-(pyrrolidin-1-yl)propoxy]-1H-pyrazole hydrochloride]",152 to 156,104,Ki (σ1-receptor): 12.4 nM
"CC(C)c1cc(OCCN2CCc3ccccc3C2)nn1-c1ccc(Cl)c(Cl)c1.Cl [Example 36, 2-{2-[1-(3,4-dichlorophenyl)-5-isopropyl-1H-pyrazol-3-yloxy]ethyl}-1,2,3,4-tetrahydroisoquinoline hydrochloride]",186 to 191,52.7,
"Cc1cc(OCCN2CCCCC2)nn1-c1ccc2ccccc2c1.Cl [Example 63, 1-{2-[5-Methyl-1-(naphthalen-2-yl)-1H-pyrazol-3-yloxy]ethyl}piperidine hydrochloride]",198 to 202,105,
"Cc1cc(OCCN2CCCC2)nn1-c1ccc2ccccc2c1.Cl [Example 64, 5-Methyl-1-(naphthalen-2-yl)-3-[2-(pyrrolidin-1-yl)ethoxy]-1H-pyrazole hydrochloride]",170 to 171,105,
C[C@@H]1CN(CCCn2c3ccccc3c3ccccc32)C[C@H](C)N1 [rimcazole],,,clinical effects in the treatment of psychosis (psychosis): clinically shows effects in the treatment of psychosis
SKF 10047,,,affinity for the sigma (σ-2) site (sigma (σ-2) site): micromolar affinity; affinity for the sigma 1 (σ-1) site (sigma 1 (σ-1) site): nanomolar affinity
